Laboratory results reported in patent US20250171743A1, “HUMAN TOOTH ORGANOIDS” (Katholieke Universiteit Leuven, priority 2022, published 2025).
One block for each molecule: values may come before it.

How the values were obtained:
assembloids = assay: Assembloids (organoid-derived epithelial cells plus DPSCs) cultured in TOM+αMEM with TGFβ receptor inhibitor; assay type: cell-based, human; settings: inhibitor 5 μM in TOM+αMEM
Procedure: It was chosen to use DPSCs to mimic early stages of tooth development in which DPSC-derived odontoblasts are in close contact with ameloblasts. The DPSCs, isolated, grown and characterized using well-defined standard protocols, were combined with organoid-derived epithelial stem cells in a layered approach, thereby forming composite organoids (assembloids) which were cultured in a mixture of TOM and the DPSC growth medium αMEM (FIG. 6d).
Whereas ODAM is not present in the straight (pure) epithelial organoids cultured in TOM (see above and FIG. 12c), it is expressed in the assembloids (FIG. 6d). This induction is not due to the addition of αMEM to TOM (FIG. 12c). […]
Primary dental follicle tissue, organoids and assembloid were fixed in 4% PFA for 1h, embedded in paraffin, and sections subjected to hematoxylin and eosin (H&E), immunofluorescence or ARS staining. […] ImageJ software was used to quantify immunoreactive signal intensity and the ‘corrected total organoid fluorescence’ (CTOF) (=integrated density−(area of organoid×mean fluorescence of background readings).
RNA was extracted from dissociated dental follicle, organoids and assembloids using the GenElute Mammalian Total RNA Miniprep Kit (Sigma-Aldrich) according to the manufacturer's instructions. […] Relative gene expression levels were calculated as ΔCt (Ct target−Ct housekeeping gene) and compared to control (see figure legends).

tooth organoids [1] = assay: Effect of TGFβ and TGFβ receptor inhibitor on differentiation of organoids switched to MIM; assay type: cell-based, human
Excerpt: The above analyses exposed the enrichment of TGFβ pathway processes in tooth organoids subjected to ameloblast differentiation, in line with the proposed key role of TGFβ in amelogenesis. To assess the impact of the TGFβ pathway, organoids grown in TOM (P5) were switch to MIM with or without TGFβ (FIG. 6a).
During tooth root development, Hertwig's epithelial root sheath (HERS), from which epithelial cell rests of Malassez is eventually derived, undergoes EMT to develop to participate in periodontal ligament formation. It has previously been proposed that this EMT process is regulated by TGFβ, thereby triggering HERS/epithelial cell rests of Malassez cells to switch phenotype toward periodontal ligament cells.
Organoids (or dissociated dental follicle) were cultured in mineralization-inducing medium (MIM; Table 3; time schedule, see FIG. 4a and FIG. 10d) as described above. Recombinant human TGFβ1 (10 ng/ml; R&D) and the selective TGFβ receptor 1/2 inhibitor LY2109761 (5 μM; Selleckchem) were added when indicated.
(§1) Primary dental follicle tissue, organoids and assembloid were fixed in 4% PFA for 1h, embedded in paraffin, and sections subjected to hematoxylin and eosin (H&E), immunofluorescence or ARS staining. Antigen retrieval (10 mM citrate, pH6) and permeabilization (0.1% Triton X-100; Sigma-Aldrich) were performed. After incubation with primary and secondary antibodies (Table 5), sections were mounted with Vectashield (DAPI; Vector Laboratories) or DPX mountant (Sigma-Aldrich). Analysis was done using a Leica DM5500 epifluorescence microscope or a Zeiss Axioimager epifluorescence microscope. ImageJ software was used to quantify immunoreactive signal intensity and the ‘corrected total organoid fluorescence’ (CTOF) (=integrated density−(area of organoid×mean fluorescence of background readings).
(§2) RNA was extracted from dissociated dental follicle, organoids and assembloids using the GenElute Mammalian Total RNA Miniprep Kit (Sigma-Aldrich) according to the manufacturer's instructions. RNA was reverse-transcribed (RT) using the Superscript III First-Strand Synthesis Supermix (Thermo Fisher Scientific) and the resultant cDNA samples were analysed with SYBR Green-based quantitative PCR (qPCR) using the StepOnePlus Real-Time PCR System (AB Applied Biosystems). Forward and reverse primers (Table 6) were designed using PrimerBank and PrimerBlast. Glyceraldehyde-3-phosphate dehydrogenase (GAPDH) was included as housekeeping gene. Relative gene expression levels were calculated as ΔCt (Ct target−Ct housekeeping gene) and compared to control (see figure legends).

human dental follicle = assay: Organoid formation from dissociated dental follicle; essentiality of medium factors assessed by omitting; assay type: cell-based; settings: individual factor omitted from medium; P0, day 14 (FIG. 7a)
Excerpt: To develop epithelial organoids starting from human tooth, the dental follicle, known to encompass a large mesenchymal component but also the small epithelial epithelial cell rests of Malassez compartment, was isolated from unerupted third molars (wisdom teeth) extracted from adolescent patients (FIG. 1a). After tissue dissociation, the epithelial-mesenchymal cell mixture, comprising single cells and cell clusters, was embedded in Matrigel and cultured in a precisely defined medium. Organoids are typically established using a cocktail of growth and regulatory factors active in the tissue's epithelial stem cell niche. In case niche signals are unresolved, factors with a key role in the tissue's embryonic development are applied. […] The starting point is a medium containing these factors as well as generic organoid growth factors (such as WNT activators, nicotinamide, BMP inhibitor and p38 MAPK inhibitor), and assessed the essentiality of individual factors by omitting. […] Eventually, this systematic evaluation led to defining an optimized medium (further referred to as tooth organoid medium or TOM; Table 1), allowing to develop organoid lines from dental follicle samples at 100% efficiency (Table 2).
Third molars, predominantly unerupted, were extracted from adolescent patients (Table 2) at the ‘Oral and Maxillo-Facial Surgery-Imaging & Pathology (OMFS-IMPATH)’ unit of University Hospitals (UZ) Leuven after informed consent. The study was approved by the Ethics Committee Research UZ/KU Leuven (13/0104U). For sample collection, the gingiva was pushed aside after which the bone was perforated and the third molars with associated dental follicles were carefully isolated (without the visually distinct gingiva). dental follicle tissue was diligently peeled from the tooth and collected in Eagle's Minimum Essential Medium (αMEM; Sigma-Aldrich) supplemented with 10% foetal bovine serum (FBS; Sigma-Aldrich), 1% penicillin-streptomycin (Gibco) and 0.5% fungizone (Amphotericin B; Gibco). Following short rinsing steps in 70% ethanol and phosphate-buffered saline (PBS; Gibco), tissue was minced into small (˜1 mm^2) fragments, and further dissociated using collagenase VI (3 mg/ml; Thermo Fisher Scientific) and dispase II (4 mg/ml; Sigma-Aldrich) for 2 h at 37° C., while regularly pipetting up and down. The single cells and few small cell clusters were collected through a 40 μm cell strainer (Corning) while removing the remaining larger and fibrous tissue fragments.
(§3) The dissociated dental follicle cell material was resuspended in a mixture of serum-free defined medium (SFDM; Thermo Fisher Scientific; Table 4) and growth factor-reduced Matrigel (Corning) in a 30:70 ratio, which was plated in 48-well plates at 20,000 cells per 20 μL drop. After solidification, tooth organoid medium (TOM; Table 1), unless indicated otherwise, was supplemented. ROCK inhibitor (RI; 10 μM; Merck Millipore) was added the first day of seeding (or passaging). Organoid cultures were kept at 37° C. in a 1.9% CO2 incubator, and medium was refreshed every 2 to 3 days, each time supplemented with fungizone (0.1%).

tooth organoids [2] = assay: EGF supplementation of tooth organoid cultures (TOM+EGF): proliferation and EMT; assay type: cell-based, human
Excerpt: To establish organoids from primary tissues, supplementation of EGF is generally found quintessential. […] In vivo, it is known that elevated EGF levels in the epithelial cell rests of Malassez compartment (as, for instance, occurring upon tooth movement, infection or trauma) activates epithelial cell rests of Malassez cell proliferation [Davis (2018) J. Vet. Dent. 35, 290-298]. […] It has been proposed that EMT induction in the epithelial cell rests of Malassez (as, for instance, occurring upon damaging tooth impact) enables the cells to migrate and eventually contribute to regeneration of neighbouring tissues [Davis (2018) J. Vet. Dent. 35, 290-298].
as §3, §1
as §2, with “Glyceraldehyde-3-phosphate dehydrogenase (GAPDH) was included as housekeeping gene.” left out

- effect of TGFβ on ODAM and AMTN expression (tooth organoids [1]; inhibitor 5 μM added simultaneously with TGFβ in MIM): blocked
- upregulated ODAM and AMTN expression in MIM (tooth organoids [1]; inhibitor 5 μM, without exogenous TGFβ): strongly reduced
Molecule: c1ccc(-c2nn3c(c2-c2ccnc4cc(OCCN5CCOCC5)ccc24)CCC3)nc1 [LY2109761, reference compound]
- AMTN expression in the assembloids (assembloids): reduced
- ODAM protein expression in the assembloids (assembloids): completely abolished

Molecule: Oc1ccc(-c2nc(-c3ccncc3)c(-c3ccc(F)cc3)[nH]2)cc1 [SB202190, reference compound]
- need of the factor for efficient organoid formation (human dental follicle): needed for efficient organoid formation

Molecule: NC(=O)c1cccnc1 [nicotinamide, reference compound]
- need of the factor for efficient organoid formation (human dental follicle): needed for efficient organoid formation

Molecule: FGF2
- need of the factor for efficient organoid formation (human dental follicle): needed for efficient organoid formation

Molecule: epidermal growth factor [EGF]
- number of proliferating (KI67+) cells in the organoids (tooth organoids [2]; EGF 50 ng/ml to initiating cultures, P0, day 7): increased number
- proliferation (tooth organoids [2]; EGF 50 ng/ml, P0, day 14): decline in proliferation
- EMT / VIM expression in the organoids' border (tooth organoids [2]; EGF 50 ng/ml, P0, day 14, colocalized with CK5 or P63): induction of an EMT process
- VIM+ cells after EGF exposure following growth and expansion in TOM (tooth organoids [2]; P5, day 14, also cell migration out of organoids): appearance of VIM^+ cells

Molecule: insulin-like growth factor-1 [IGF1]
- need of the factor for efficient organoid formation (human dental follicle): needed for efficient organoid formation

Molecule: sonic hedgehog [SHH]
- need of the factor for efficient organoid formation (human dental follicle): needed for efficient organoid formation

- VIM expression in the epithelial (CK5+) organoids (tooth organoids [1]; MIM with TGFβ): further increased
- AMTN gene expression (tooth organoids [1]; MIM with TGFβ 10 ng/ml, RT-qPCR): increased expression
- expression of periodontal ligament-specific genes POSTN and COL3A1 (tooth organoids [1]; MIM with TGFβ, RT-qPCR): significantly stimulated
- ODAM expression (immunofluorescence) (tooth organoids [1]; TOM-grown P5 organoids switched to MIM with TGFβ 10 ng/ml): further upregulated
Molecule: transforming growth factor-beta [TGFβ]

B1: Noggin (protein, UniProt Q13253 28-232, looked up)
Noggin: QHYLHIRPAPSDNLPLVDLIEHPDPIFDPKEKDLNETLLRSLLGGHYDPGFMATSPPEDRPGGGGGAAGGAEDLAELDQLLRQRPSGAMPSEIKGLEFSEGLAQGKKQRLSKKLRRKLQMWLWSQTFCPVLYAWNDLGSRFWPRYVKVGSCFSKRSCSVPEGMVCKPSKSVHLTVLRWRCQRRGGQRCGWIPIQYPIISECKCSC
- need of the factor for efficient organoid formation (human dental follicle): needed for efficient organoid formation

B2: FGF8 (protein, UniProt P55075 23-233, looked up)
Fibroblast growth factor 8: QEGPGRGPALGRELASLFRAGREPQGVSQQHVREQSLVTDQLSRRLIRTYQLYSRTSGKHVQVLANKRINAMAEDGDPFAKLIVETDTFGSRVRVRGAETGLYICMNKKGKLIAKSNGKGKDCVFTEIVLENNYTALQNAKYEGWYMAFTRKGRPRKGSKTRQHQREVHFMKRLPRGHHTTEQSLRFEFLNYPPFTRSLRGSQRTWAPEPR
notes: fibroblast growth factor
- need of the factor for efficient organoid formation (human dental follicle): needed for efficient organoid formation

B3: R-spondin 1 (protein, UniProt Q2MKA7 21-263, looked up)
R-spondin-1: SRGIKGKRQRRISAEGSQACAKGCELCSEVNGCLKCSPKLFILLERNDIRQVGVCLPSCPPGYFDARNPDMNKCIKCKIEHCEACFSHNFCTKCKEGLYLHKGRCYPACPEGSSAANGTMECSSPAQCEMSEWSPWGPCSKKQQLCGFRRGSEERTRRVLHAPVGDHAACSDTKETRRCTVRRVPCPEGQKRRKGGQGRRENANRNLARKESKEAGAGSRRRKGQQQQQQQGTVGPLTSAGPA
- need of the factor for efficient organoid formation (human dental follicle): needed for efficient organoid formation

B4: FGF10 (protein, UniProt O15520 38-208, looked up)
Fibroblast growth factor 10: QALGQDMVSPEATNSSSSSFSSPSSAGRHVRSYNHLQGDVRWRKLFSFTKYFLKIEKNGKVSGTKKENCPYSILEITSVEIGVVAVKAINSNYYLAMNKKGKLYGSKEFNNDCKLKERIEENGYNTYASFNWQHNGRQMYVALNGKGAPRRGQKTRRKNTSAHFLPMVVHS
notes: fibroblast growth factor
- need of the factor for efficient organoid formation (human dental follicle): needed for efficient organoid formation
